For series [1], the system named is human T24 carcinoma cells. The series can be described thus: intracellular uptake and generation of fluorescein from FDA in T24 carcinoma cells by microscopic fluorimetry.
From the text: (§3) After removal of FDA from the tissue culture medium, the generation of fluorescein from the cells can be measured. […] The intensity of fluorescence of intracellular fluorescein fades when the fluorescein is correspondingly excited. The higher the intracellular concentration of fluorescein at a given irradiation energy, the stonger this fading is: the lower level for a fading effect is 0.004 mmol/l of intracellular fluorescein for 71 mJ/mm^2 and 0.002 mmol/l for 560 mJ/mm^2 (irradiation time 120 seconds).
In series [2] the test system is living cells. The experiment in a line: uptake by living cells. Format: cell-based. From the text: (§1) Fluorescein therefore accumulates temporarily in the cells. […] Intensive irradiation reduces the intensity of fluorescein.
(§2) Loading the intracellular space of cells with fluorescein is, however, complicated by the fact that FDA is also hydrolysed by esterases in the extracellular fluid. The amount of FDA available for cell loading is thereby reduced. For reproducible clinical use it is therefore advisable to lower the concentration of extracellular esterases. This is conveniently done by washing the environment of the particular area which it is desired to treat. A further problem may arise from the fact that the FDA diffuses away from the site of actual use and, as a consequence thereof, is also taken up by cells that are not to be treated at all. This problem can be countered by optimising the local application of FDA as well as the defined irradiation, typically by using a particularly well focussed beam of light.

For series [3], the system named is T4 tumour cells. Particulars: over 10 minutes.
From the text: The higher the extracellular concentration of FDA, the higher the resultant intracellular concentration of fluorescein.
In series [4] the test system is rabbit eye cornea. The series can be described thus: cytotoxic effect of irradiation of intracellular fluorescein in vivo on rabbit eye cornea. The following applies: for lowest effective energy for fading effect: 488 nm argon laser. How it is done: The cytotoxic effect of the irradiation of intracellular fluorescein with 488 nm laser light (argon) is investigated in vivo on rabbit eye cornea. FDA solution is dropped on to the cornea for 10 minutes, followed by washing with physiological sodium chloride solution. Irradiation is afterwards effected. The intensity of florescence on the cornea rises sharply during this time, then slowly falls to zero over about 5 hours after washing. Irradiation of the fluorescing cornea results in black specks the size of which matches the area irradiated by the laser. The lowest effective energy for this fading effect is about 2.4 J/mm^2 with 0.01 mmol/l of FDA and 0.11 J/mm^2 with 0.02 mmol/l of FDA. […] The lower limit of the irradiation energy for this cytotoxic effect is up to 0.38 mJ/mm^2 (5 seconds and 20 seconds) using 0.02 mmol/l of FDA.

Series [5] relates to human T24 carcinoma cells. The series can be described thus: intracellular uptake of fluorescein from FDA dissolved in viscous medium Hymecel. Format: cell-based. From the text:
Eight minutes after removal of the viscous solution and washing the cells, the intracellular fluorescein concentration is 0.004 to 0.005 mmol/l after 0.01 mmol/l of FDA, 0.007 to 0.009 mmol/l after 0.02 mmol/l of FDA and 0.019 mmol/l after 0.04 mmol/l of FDA.

In series [6] the test system is rabbit lens epithelium. The experiment in a line: cytotoxic effect of irradiation of intracellular fluorescein in vivo on rabbit lens epithelium. How it is done:
The cytotoxic effect of the irradiation of intracellular fluorescein with […] laser light (argon) is investigated in vivo on rabbit lens epithelium. This is done by first treating both rabbit eyes with Voltaren® eye drops (3 times over 24 hours) and expanding the pupillae with a mydriatic. The rabbits are operated on under a full anaesthetic. After a small incision of the cornea, the anterior chamber of the eye is thoroughly rinsed for 1 minute with sodium chloride solution (to remove natural chamber water), then slowly rinsed with 5 ml of FDA solution (1 ml/min) and filled, thereafter kept for a further 5 minutes and once more rinsed with sodium chloride solution for 1 minute (to remove excess FDA solution). While washing the chamber with FDA solution, sodium chloride solution is dropped onto the cornea (for rapid dilution and removal of the FDA solution flowing back from the chamber). […] Finally, irradiation (0.92 W to 0.64 W) is carded out for 30 seconds, the circular irradiation surface on the plane of the lens being 95 mm^2 (11 mm diameter). […] All investigated irradiation doses (291 mJ/mm^2 to 19 mJ/mm^2) were effective.

For series [7], the system named is human T24 carcinoma cells. The series can be described thus: fading of intracellular fluorescein on irradiation in T24 carcinoma cells. Format: cell-based.
A short description of series [8]: uptake by living cells. Format: cell-based. Particulars: living cells; intracellular; read-out: half-life of fluorescein within a cell.
From the text: as §1, §2

The test system of series [9] is human T24 carcinoma cells. The experiment in a line: cells. The following applies: read-out: cells killed. From the text: The cytoxic action of irradiation (excitation 480 nm) of intracellular fluorescein from FDA is investigated using tissue culture of human T24 carcinoma cells. This is done by fluorometric determination of the intracellular fluorescein concentration under a microscope (excitation 480 nm; emission 520 nm) in single cells and the vitality via the uptake of propidium iodide.

The nature of series [10]: in vitro. The following applies: human, t24 carcinoma cells.
From the text: as §3

Structures are written as SMILES. Like-named read-outs stand apart in the source and are kept apart here.

As to `CC(=O)Oc1ccc2c(c1)Oc1cc(OC(C)=O)ccc1C21OC(=O)c2ccccc21` [FDA, fluorescein diacetate], the intracellular fluorescein concentration result is “no longer measurable” in [1] (0.0001 mmol/l of FDA); 0.004 mmol/L in series [1] (0.001 mmol/l of FDA, after 10 minutes); 0.01 mmol/L in series [1] (0.01 mmol/l of FDA, after 10 minutes); 0.015 mmol/L in series [1] (0.02 mmol/l of FDA, after 10 minutes); 0.017 mmol/L in [1] (0.04 mmol/l of FDA, after 10 minutes); 0.019 mmol/L in [5] (0.04 mmol/l of FDA in Hymecel, 8 minutes after removal and washing). Further, the “duration of linear rise of intracellular fluorescein concentration” value in series [1] (FDA added to medium) is listed as “about 4 minutes”. In addition, the “time to approximately plateau values of intracellular fluorescein concentration” value in [1] (FDA added to medium) was “about 10 minutes”. Besides, in [2], the “uptake by living cells” value is given as “readily taken up by most living cells”. The “plateau concentration of intracellular fluorescein” value in [3] (1 μm FDA solution) is 25 μm; in series [3] (100 μm FDA solution), 70 μm. Also, the “lowest effective energy for fading effect” value is “about 2.4 J/mm^2” in [4] (0.01 mmol/l of FDA) and 0.11 J/mm^2 in series [4] (0.02 mmol/l of FDA). In addition, the “lower limit of irradiation energy for cytotoxic effect” value in series [4] (0.02 mmol/l of FDA, 5 seconds and 20 seconds) is “up to 0.38 mJ/mm^2”. The “time for cornea fluorescence to fall to zero after washing” value in series [4] (FDA solution dropped on cornea for 10 minutes) is listed as “about 5 hours”. In addition, the “histology of irradiated cornea (black specks)” value in [4] (irradiated fluorescing cornea) is recorded as “areas of dead epithelial cells in the outermost layer of the cornea”. Further, the “increase in intracellular fluorescein concentration and plateau values versus aqueous medium” value in series [5] (FDA in Hymecel) is “approximately match those after incubation of the cells in aqueous medium”. For the same molecule, the “effectiveness of investigated irradiation doses” value in series [6] (291 mJ/mm^2 to 19 mJ/mm^2) is on record as “effective”. Moreover, in series [6] (FDA solution in anterior chamber), the “fluorescence of the cornea surface near the incision site” value is listed as “fluoresces minimally”. The “fluorescence of the lens surface after irradiation” value in [6] (after irradiation) was “no longer fluoresces”. In addition, the “fluorescence of the anterior lens capsule” value in series [6] (before irradiation, epifluorescent stereomicroscope) was “constant marked increase of fluorescence”. Also, the “histological evaluation of lens in irradiation field” value in series [6] (sacrificed about 18 hours later, irradiation 30 seconds) is “total necrosis of the lens epithelium and microscopically unchanged basal membrane, pyknotic nuclear residues and edematous swelling of the anterior subcapsular area of the lens”.

Regarding `O=C1OC2(c3ccc(O)cc3Oc3cc(O)ccc32)c2ccccc21` [fluorescein], the “kinetics order of exclusion of fluorescein from the individual cells” value in [1] (after removal of FDA from the medium) was “first order kinetics”. Further, the “uptake of pure fluorescein added to the cells” value in [1] (pure fluorescein) is reported as “No uptake can be observed”. Further, the “fading on irradiation for observation” value in series [7] (0.1 mW/mm^2, 1 to 10 minutes) is recorded as “no measurable fading”. Also, the “lower level of intracellular fluorescein for a fading effect” value in series [7] (71 mJ/mm^2, irradiation time 120 seconds) was 0.004 mmol/L. Further, in [7] (560 mJ/mm^2, irradiation time 120 seconds), the “lower level of intracellular fluorescein for a fading effect” value amounted to 0.002 mmol/L. In addition, in series [8], the half-life (as a rule, the time in which the quantity being followed falls by half) is ~15 min. Also, the “uptake by living cells” value in series [2] is listed as “virtually not taken up by living cells”. In addition, in [9] (15 s), the cytotoxicity at 7 µM was determined as 50% and the cytotoxicity at 13 µM is 50%. In addition, in series [9] (2 min), the cytotoxicity at 3 µM was 50% and the cytotoxicity at 5 µM came out at 50%. Moreover, in series [10], the half-life fell in the range of 10 to 25 min.

For the origin of these results see patent US5573773A, “Stable highly concentrated formulations of fluorescein derivatives” (Ciba Geigy Corporation, priority 1992, dated 1996).
